This passage reports viability results from article PMC12040169 (PLOS Biology, 2025).

This series is described as follows: in vitro. The conditions noted are these: human, hela cells, % viability.

As for `COc1ccc(CC(=O)N2CCC(c3cc4ccccc4cn3)C2)cc1` (stereo not drawn) [CBK283421], the viability at 28.5 h, 10 µM stood at 105%. On the same count and under the same terms, as for `Oc1ccc(-c2cncc(-c3ccc(F)cc3)n2)cc1` [CBK123794], the figure is 93.7%; as for `COc1ccc(Br)cc1S(=O)(=O)Nc1c(C(=O)Nc2ccc(F)cc2)[nH]c2ccccc12` [CBK050095], 88.2%.

With `COc1ccc(CNC(=O)[C@H]2C=CCN2C(=O)c2cccs2)cc1` [CBK282325], the viability at 28.5 h, 10 µM worked out at 103%. The same measure, in the same setting: as for `CCn1c(=O)n(CC(=O)N2CCCC2)c2cccnc21` [CBK283904], the figure is 107%; as for `CCOc1ccccc1-n1c(CCC(=O)O)ccc1-c1cccs1` [CBK264794], 105%; as for `Cc1cc2ccccc2n2c(SCCC(=O)Nc3ccc(C(C)(C)C)cc3)nnc12` [CBK265639], 106%. Same read-out and setting: in the case of `Cn1c(=O)n(C)c2cc(S(=O)(=O)NCCC(=O)O)ccc21` [CBK267565] it was 105%. Still for that read-out and setting: as for `COc1ccc(C(=O)Nc2ccc3c(c2)nc2n3CCN(Cc3ccccc3)C2)cc1` [CBK266820], the figure is 82.5%. Turning to `COc1ccc(C(C)C)cc1-c1nc(N)cc2cccnc12` [CBK081178], the viability at 28.5 h, 10 µM was found to be 99.6%. On the same count and under the same terms, in the case of `Cc1ccc([N+](=O)[O-])cc1NC(=O)CSC1=NCCS1` [CBK267489] it was 88.6%; in that of `CN(C)C(=O)c1ccc(Cn2nc(C(=O)NCCOc3ccccc3)c3ccccc32)cc1` [CBK047700], 91.7%; in that of `COc1ccc(NC(=O)c2c[nH]c3nc(C)ccc3c2=O)cc1` [CBK287816], 88.4%.

With `CCOC(=O)C1(C2CCCCC2)CCN(C(=O)c2cc[nH]c2)CC1` [CBK137103], the viability at 28.5 h, 10 µM worked out at 92.1%.

For the molecule `COc1ccc(OC)c(NS(=O)(=O)c2ccccc2)c1` [CBK099989], the viability at 28.5 h, 10 µM stood at 73%. Same read-out and setting: in the case of `CN(C)CCN(C)C(=O)c1ccc(-c2ccc3c(c2)OCO3)nc1N(C)C` [CBK106072] it was 92.7%; in that of `CC(C)OCC(O)Cn1c(NC2CCCCC2)nc2c1c(=O)[nH]c(=O)n2C` (stereo not drawn) [CBK140893], 107%. Take `O=C(NN=C1CCCCC1)C(O)(c1ccccc1)c1ccccc1` [CBK261783]: under “bulk resorufin, single well”, the viability at 28.5 h, 10 µM worked out at 91.1%. For the molecule `Cc1nc(C(Cc2ccsc2)NC(=O)c2cc[nH]n2)sc1C` (stereo not drawn) [CBK284776], the viability at 28.5 h, 10 µM was 85.9%.

Turning to `COc1ccc2c(c1)Cc1sc(NC(C)=O)nc1-2` [CBK287876], the viability at 28.5 h, 10 µM was 93.8%. Still for that read-out and setting: in the case of `O=c1c2snc(-c3ccc(F)cc3)c2ncn1C1CC1` [CBK282859] it was 76.9%; in that of `Cc1ccc(C(C)(C)C)c(OC(=O)c2cnc(C)cn2)c1` [CBK090261], 96.5%. The same measure, in the same setting: as for `O=S(=O)(Nc1cc(Cl)nc(Cl)c1)c1ccc(-c2cc(C(F)(F)F)on2)s1` [CBK062215], the figure is 90.9%; as for `CNC(=O)CN1C(=O)CC2(C1=O)C(=O)N(C)c1ccc(OC)cc12` (stereo not drawn) [CBK075190], 91.5%. The same measure, in the same setting: as for `OCCN1CC2(CCN(CCc3cccc4ccccc34)CC2)c2ccccc21` [CBK137013], the figure is 106%. For `CC1(C)Cc2nc3nc(SCC(=O)c4ccc(Br)cc4)n(-c4ccccc4)c(=O)c3cc2CO1` [CBK263310], the viability at 28.5 h, 10 µM worked out at 91%. As for `COCCCn1c(CCC(=O)O)ccc1-c1cccs1` [CBK267942], the viability at 28.5 h, 10 µM is 121%. Still for that read-out and setting: as for `O=C(Nc1ccc(S(=O)(=O)N2CCCCCC2)cc1)c1nc2ncccn2n1` [CBK266155], the figure is 97.7%; as for `Cc1cccc(C2(c3cccc(C)c3)CC2C(=O)NCc2cccnc2)c1` (stereo not drawn) [CBK262382], 106%; as for `N#Cc1c2c(c(NCCN3CCCCC3)n3c1nc1ccccc13)CCC2` [CBK263140], 114%. For the molecule `Clc1cccc(N2CCNCC2)n1` [CBK001379], the viability at 28.5 h, 10 µM (bulk resorufin, single well) turned out to be 95.3%. Regarding `O=C(O)c1ccc(COc2cccc(/C=N\O)c2)cc1` [CBK288501], the viability at 28.5 h, 10 µM turned out to be 91.9%.

Consider `Cc1cccc(-c2noc(CCC(=O)NCC3CCCO3)n2)c1` (stereo not drawn) [CBK268241], for which the viability at 28.5 h, 10 µM amounted to 118%. Still for that read-out and setting: as for `CC(=O)NC[C@H]1CN(c2ccc(C3CNC3)c(F)c2)C(=O)O1` [CBK013035], the figure is 82.8%; as for `COC(=O)c1cn(C(=O)COc2ccc(Cl)cc2)c2ccccc12` [CBK262598], 87%. Still for that read-out and setting: in the case of `CC(C)Nc1cc(SCCc2ccccn2)ncn1` [CBK105617] it was 97.8%; in that of `COc1cccc(-c2nnc(SCc3nc4ccccc4[nH]3)n2N)c1` [CBK267549], 91%; in that of `COc1ccc(-n2c(SCCc3ccccc3)nnc2-c2ccncc2)cc1` [CBK265618], 85.3%. As to `Cc1cccc(-c2csc3c(=O)[nH]c(N4CCC(C(=O)NCc5ccncc5)CC4)nc23)c1` [CBK215625], the viability at 28.5 h, 10 µM worked out at 106%. On the same count and under the same terms, in the case of `CNC(=O)c1ccc(-c2ccc(CNC(=O)C(C)Oc3ccc(C)c(C)c3)cc2)nc1C` (stereo not drawn) [CBK286014] it was 104%; in that of `COc1ccc(C=O)cc1CSc1nc2ccccc2[nH]1` [CBK266209], 94.7%. On the same count and under the same terms, in the case of `CN(Cc1ccccc1)C(=O)c1ccccc1NC(=O)c1ccccc1` [CBK267818] it was 107%. Same read-out and setting: as for `Cc1[nH]c(C(=O)NCCc2ccco2)c(C)c1C(=O)OC(C)C` [CBK295180], the figure is 84.1%; as for `CC1CC(C)CN(CCCNC(=O)c2cc(C(C)C)nn2C)C1` (stereo not drawn) [CBK282665], 106%. On to `CCOc1n[s+]([O-])nc1Nc1cc(Cl)cc(Cl)c1` (stereo not drawn) [CBK007897], for which the viability at 28.5 h, 10 µM came to 101%.

Regarding `NS(=O)(=O)c1ccc(NC(=O)c2ccc(COc3ccccc3)o2)cc1` [CBK267915], the viability at 28.5 h, 10 µM came out at 104%. Still for that read-out and setting: as for `CC1(C)CC(=O)c2sc(NC(=O)c3ccccc3)nc2C1` [CBK287318], the figure is 85.6%.

Regarding `O=C(O)CCc1ccc(-c2ccc(Br)cc2)n1-c1ccccc1O` [CBK131892], the viability at 28.5 h, 10 µM was determined as 93.9%. As for `O=C1c2ccc(Oc3cccc([N+](=O)[O-])c3)cc2C(=O)N1c1ccccn1` [CBK261190], the viability at 28.5 h, 10 µM was 95.8%. Still for that read-out and setting: as for `CCCS(=O)(=O)c1ccc2[nH]c(NC(=O)c3cnc(-c4ccccc4)c(-c4ccncc4)c3)nc2c1` [CBK037426], the figure is 100%; as for `O=C(O)/C=C/C(=O)N(Cc1ccc2c(c1)OCO2)C1CC(=O)N(c2ccccc2)C1=O` (stereo not drawn) [CBK262786], 91.4%; as for `O=c1c(N2CCNCC2)nccn1CCc1cccs1` [CBK050382T], 89.3%. Take `COc1ccc(NC(=O)C(C)n2nc(C(=O)O)c3ccccc3c2=O)cc1` (stereo not drawn) [CBK295322]: the viability at 28.5 h, 10 µM came out at 107%.

For `COC(=O)[C@@H]1CN(C(=O)c2cccs2)C[C@H]1c1ccc(OC)cc1` [CBK283725], the viability at 28.5 h, 10 µM was determined as 87.1%.

Consider `Clc1cc(NCc2ccc(Cl)c(Cl)c2)n2nccc2n1` [CBK037043], for which the viability at 28.5 h, 10 µM is 97.7%. On the same count and under the same terms, as for `Cc1nn(CC(=O)N2CCCC2)c(=O)c2cc3ccsc3n12` [CBK284057], the figure is 88.7%; as for `Cc1ccc(C(=O)COC(=O)C(Cc2ccccc2)N2C(=O)c3cc(Cl)c(Cl)cc3C2=O)cc1` (stereo not drawn) [CBK264176], 109%.

Broadly, the viability is a read-out of living cells in per cent, often relative to untreated cells.
